In patent US20230021329A1, “NANOSTRUCTURED BINARY GEL COMPOSITION AND USE THEREOF” (Veri Nano Inc., priority 2019, published 2023):

Assay: Release study of agents from the gel
Assay type: physicochemical
[1] = release from hydrogel composition #4, 10 h in PBS

Description: 25 ml of PBS was added to each of the beakers. The beakers were put on a plate shaker (Delfia 1296-004) and shaken at the “low” setting for 10 h. The liquid was centrifuged at 21130 rcf for 10 min, and the supernatants were taken for analysis.
BSA Protein release from the nanoparticles was quantified via nanodrop spectrophotometer to determine the concentration of protein in the supernatant, after creating a nanoparticle pellet on centrifugation, all these after 10 hours of incubation in PBS at room temperature.
The concentration released of the Rhodamine B was determined by talking the supernatant after 10 h, centrifuged and diluted the solution by 10×. Subsequently, the absorbance was measured by using a plate reader (Varioskan Lux) and compared to a calibration curve.

- amount released [1]: 6.3 mg
- percent release [1]: 5.7%
- concentration in supernatant (release from hydrogel composition #4, supernatant after 10 h, absorbance vs calibration curve): 252 μ/ml
Compound: CCN(CC)c1ccc2c(-c3ccccc3C(=O)O)c3ccc(=[N+](CC)CC)cc-3oc2c1.[Cl-] [Rhodamine B]
